{"source": "PubChem BioAssay AID1259411", "about": "(Chemical Carcinogenesis Research Information System (CCRIS), 2018)", "test_system": "rodent carcinogenicity bioassays, tumor incidence", "assay": "CCRIS carcinogenicity studies", "how_it_was_run": "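Archive of carcinogenicity, mutagenicity, tumor promotion and tumor inhibition results drawn from journals, NCI reports and other sources, expert-reviewed; covers 1985-2011 and is no longer updated.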", "note": "Calls of active or inactive are those of the source. No rule for the calls is given here.", "data": [{"smiles": "O=c1[nH]c(=O)n(O)c2nc[nH]c12", "values": [{"measurement": "carcinogen call", "setting": "Species: RAT, Strain/Sex: SPRAGUE-DAWLEY/FEMALE, Route: SUBCUTANEOUS, Dose: 3-7 MG/SUSPENDED IN CARBOXYMETHYLCELLULOSE IN SALINE 1/WK FOR 22-26 WK, Tumor Site: Type of Lesion: INJECTION SITE, LIVER: HYPERPLASTIC NODULE OR HEPATOMA", "result": "active; positive"}, {"measurement": "carcinogen call", "setting": "Species: RAT, Strain/Sex: SPRAGUE-DAWLEY/MALE, Route: SUBCUTANEOUS, Dose: 0, 0.1, 1.0 MG IN CARBOXYMETHYLCELLULOSE 3/WK FOR 8 WK, Dose: 0, 0.1, 1.0 MG IN CARBOXYMETHYLCELLULOSE 3/WK FOR 8 WK, Tumor Site: Type of Lesion: INJECTION SITE: SARCOMA, FIBROMA", "result": "active; positive"}, {"measurement": "carcinogen call", "setting": "Species: RAT, Strain/Sex: WISTAR/MALE, FEMALE, Route: SUBCUTANEOUS, Dose: 3-7 MG/SUSPENDED IN CARBOXYMETHYLCELLULOSE IN SALINE 1/WK FOR 22-26 WK, Tumor Site: Type of Lesion: INJECTION SITE, LIVER: HYPERPLASTIC NODULE OR HEPATOMA", "result": "active; positive"}, {"measurement": "carcinogen call", "setting": "Species: RAT, Strain/Sex: WISTAR/MALE, Route: ORAL, Dose: 7 MG IN CARBOXYMETHYLCELLULOSE IN SALINE 1/WK FOR 22 WK, Tumor Site: Type of Lesion: LIVER", "result": "active; positive"}, {"measurement": "carcinogen call", "setting": "Species: RAT, Strain/Sex: WISTAR/MALE, Route: SUBCUTANEOUS, Dose: 0, 0.1, 1.0 MG IN CARBOXYMETHYLCELLULOSE 3/WK FOR 8 WK, Dose: 0, 0.1, 1.0 MG IN CARBOXYMETHYLCELLULOSE 3/WK FOR 8 WK, Tumor Site: Type of Lesion: INJECTION SITE: SARCOMA, FIBROMA", "result": "active; positive"}]}, {"smiles": "Brc1c(Br)c(Br)c(Oc2c(Br)c(Br)c(Br)c(Br)c2Br)c(Br)c1Br", "values": [{"measurement": "carcinogen call", "setting": "Species: MOUSE, Strain/Sex: B6C3F1/FEMALE, Route: ORAL, Dose: 0, 25000, 50000 PPM IN DIET FOR 103 WK (STUDY DURATION: 103 WK), Dose: 0, 25000, 50000 PPM IN DIET FOR 103 WK (STUDY DURATION: 103 WK)", "result": "inactive; negative"}, {"measurement": "carcinogen call", "setting": "Species: MOUSE, Strain/Sex: B6C3F1/MALE, Route: ORAL, Dose: 0, 25000, 50000 PPM IN DIET FOR 103 WK (STUDY DURATION: 103 WK), Dose: 0, 25000, 50000 PPM IN DIET FOR 103 WK (STUDY DURATION: 103 WK), Tumor Site: Type of Lesion: LIVER: HEPATOCELLULAR ADENOMA OR CARCINOMA, THYROID GLAND: FOLLICULAR CELL ADENOMA OR CARCINOMA", "result": "equivocal"}, {"measurement": "carcinogen call", "setting": "Species: RAT, Strain/Sex: F344/FEMALE, Route: ORAL, Dose: 0, 25000, 50000 PPM IN DIET FOR 103 WK (STUDY DURATION: 103 WK), Dose: 0, 25000, 50000 PPM IN DIET FOR 103 WK (STUDY DURATION: 103 WK), Tumor Site: Type of Lesion: LIVER: NEOPLASTIC NODULE, NEOPLASTIC NODULE OR HEPATOCELLULAR CARCINOMA", "result": "active; positive"}, {"measurement": "carcinogen call", "setting": "Species: RAT, Strain/Sex: F344/MALE, Route: ORAL, Dose: 0, 25000, 50000 PPM IN DIET FOR 103 WK (STUDY DURATION: 103 WK), Dose: 0, 25000, 50000 PPM IN DIET FOR 103 WK (STUDY DURATION: 103 WK), Tumor Site: Type of Lesion: LIVER: NEOPLASTIC NODULE, NEOPLASTIC NODULE OR HEPATOCELLULAR CARCINOMA", "result": "active; positive"}]}, {"smiles": "NC(Cc1ccc(N(CCCl)CCCl)cc1)C(=O)O", "note": "(configuration not stated)", "values": [{"measurement": "carcinogen call", "setting": "Species: RAT, Strain/Sex: SWISS/FEMALE, Route: INTRAPERITONEAL, Dose: 10 MG/KG, Tumor Site: Type of Lesion: MAMMARY GLAND: FIBROADENOMA", "result": "active; positive"}]}, {"smiles": "ClC(Cl)(Cl)C(Cl)(Cl)Cl", "values": [{"measurement": "carcinogen call", "setting": "Species: MOUSE, Strain/Sex: B6C3F1/FEMALE, Route: GAVAGE, Dose: 0, 590, 1179 MG/KG, TWA, Dose: 0, 590, 1179 MG/KG, TWA, Tumor Site: Type of Lesion: LIVER: HEPATOCELLULAR CARCINOMA", "result": "active; positive"}, {"measurement": "carcinogen call", "setting": "Species: MOUSE, Strain/Sex: B6C3F1/MALE, Route: GAVAGE, Dose: 0, 590, 1179 MG/KG, TWA, Dose: 0, 590, 1179 MG/KG, TWA, Tumor Site: Type of Lesion: LIVER: HEPATOCELLULAR CARCINOMA", "result": "active; positive"}, {"measurement": "carcinogen call", "setting": "Species: RAT, Strain/Sex: F344/F, Route: GAVAGE, Dose: 0, 80, 160 MG/KG IN CORN OIL 5D/WK FOR 103 WK (STUDY DURATION: 105 WK), Dose: 0, 80, 160 MG/KG IN CORN OIL 5D/WK FOR 103 WK (STUDY DURATION: 105 WK)", "result": "inactive; negative"}, {"measurement": "carcinogen call", "setting": "Species: RAT, Strain/Sex: F344/M, Route: GAVAGE, Dose: 0, 10, 20 MG/KG IN CORN OIL 5D/WK FOR 103 WK (STUDY DURATION: 105 WK), Dose: 0, 10, 20 MG/KG IN CORN OIL 5D/WK FOR 103 WK (STUDY DURATION: 105 WK), Tumor Site: Type of Lesion: ADRENAL MEDULLA: PHEOCHROMOCYTOMA, ADRENAL MEDULLA: PHEOCHROMOCYTOMA, BENIGN, COMPLEX OR MALIGNANT, KIDNEY: RENAL TUBULE, Tumor Site: Type of Lesion: ADRENAL MEDULLA: PHEOCHROMOCYTOMA, ADRENAL MEDULLA: PHEOCHROMOCYTOMA, BENIGN, COMPLEX OR MALIGNANT, KIDNEY: RENAL TUBULE", "result": "active; positive"}, {"measurement": "carcinogen call", "setting": "Species: RAT, Strain/Sex: OSBORNE-MENDEL/FEMALE, Route: GAVAGE, Dose: 0, 212, 423 MG/KG, TWA FOR 44 WK, Dose: 0, 212, 423 MG/KG, TWA FOR 44 WK", "result": "inactive; negative"}, {"measurement": "carcinogen call", "setting": "Species: RAT, Strain/Sex: OSBORNE-MENDEL/MALE, Route: GAVAGE, Dose: 0, 212, 423 MG/KG, TWA FOR 44 WK, Dose: 0, 212, 423 MG/KG, TWA FOR 44 WK", "result": "inactive; negative"}]}, {"smiles": "C/C(=C(\\CCOC(=O)c1ccccc1)SC(=O)c1ccccc1)N(C=O)Cc1cnc(C)nc1N", "values": [{"measurement": "carcinogen call", "setting": "Species: RAT, Strain/Sex: SPRAGUE-DAWLEY/FEMALE, Route: ORAL, Dose: 0, 1000, 10000 PPM IN DIET FOR DURATION OF STUDY (STUDY DURATION: 105 WK), Dose: 0, 1000, 10000 PPM IN DIET FOR DURATION OF STUDY (STUDY DURATION: 105 WK)", "result": "inactive; negative"}, {"measurement": "carcinogen call", "setting": "Species: RAT, Strain/Sex: SPRAGUE-DAWLEY/MALE, Route: ORAL, Dose: 0, 1000, 10000 PPM IN DIET FOR DURATION OF STUDY (STUDY DURATION: 105 WK), Dose: 0, 1000, 10000 PPM IN DIET FOR DURATION OF STUDY (STUDY DURATION: 105 WK)", "result": "inactive; negative"}]}, {"smiles": "COc1ccc(N)cc1", "values": [{"measurement": "carcinogen call", "setting": "Species: MOUSE, Strain/Sex: B6C3F1/FEMALE, Route: ORAL, Dose: 0, 0.5, 1.0% OF DIET FOR 103 WK (STUDY DURATION: 104 WK), Dose: 0, 0.5, 1.0% OF DIET FOR 103 WK (STUDY DURATION: 104 WK)", "result": "inactive; negative"}, {"measurement": "carcinogen call", "setting": "Species: MOUSE, Strain/Sex: B6C3F1/MALE, Route: ORAL, Dose: 0, 0.5, 1.0% OF DIET FOR 103 WK (STUDY DURATION: 104 WK), Dose: 0, 0.5, 1.0% OF DIET FOR 103 WK (STUDY DURATION: 104 WK)", "result": "inactive; negative"}, {"measurement": "carcinogen call", "setting": "Species: RAT, Strain/Sex: F344/FEMALE, Route: ORAL, Dose: 0, 0.3, 0.6% OF DIET FOR 103 WK (STUDY DURATION: 104-105 WK), Dose: 0, 0.3, 0.6% OF DIET FOR 103 WK (STUDY DURATION: 104-105 WK)", "result": "inactive; negative"}, {"measurement": "carcinogen call", "setting": "Species: RAT, Strain/Sex: F344/MALE, Route: ORAL, Dose: 0, 0.3, 0.6% OF DIET FOR 103 WK (STUDY DURATION: 104-105 WK), Dose: 0, 0.3, 0.6% OF DIET FOR 103 WK (STUDY DURATION: 104-105 WK), Tumor Site: Type of Lesion: PREPUTIAL GLAND: ADENOMA OR CARCINOMA", "result": "equivocal"}]}, {"smiles": "Cc1cc(-c2ccccc2C)ccc1N=O", "values": [{"measurement": "carcinogen call", "setting": "Species: HAMSTER, Strain/Sex: SYRIAN/FEMALE, Route: SUBCUTANEOUS, Dose: 0.15 MMOL/KG IN PEANUT OIL 1/WK FOR 37 WK (TOTAL DOSE 5.6 MMOL/KG), Tumor Site: Type of Lesion: INJECTION SITE: RHABDOMYOSARCOMA, SPINDLE CELL CARCINOMA, PLEIOMORPHIC SARCOMA", "result": "active; positive"}, {"measurement": "carcinogen call", "setting": "Species: HAMSTER, Strain/Sex: SYRIAN/MALE, Route: SUBCUTANEOUS, Dose: 0.15 MMOL/KG IN PEANUT OIL 1/WK FOR 37 WK (TOTAL DOSE 5.6 MMOL/KG), Tumor Site: Type of Lesion: INJECTION SITE: RHABDOMYOSARCOMA, PLEIOMORPHIC SARCOMA", "result": "active; positive"}]}, {"smiles": "C/C=C(/C)C(=O)O[C@H]1CCN2CC=C(COC(=O)[C@@](O)([C@H](C)OC)C(C)(C)O)[C@H]12", "values": [{"measurement": "carcinogen call", "setting": "Species: RAT, Route: INTRAPERITONEAL, Tumor Site: Type of Lesion: INTESTINES, LIVER, INTEGUMENTARY SYSTEM (SKIN), Tumor Site: Type of Lesion: INTESTINES, LIVER, INTEGUMENTARY SYSTEM (SKIN)", "result": "active; positive"}, {"measurement": "carcinogen call", "setting": "Species: RAT, Strain/Sex: F344/FEMALE, Route: ORAL, Dose: 0, 7, 15, 30 PPM IN DIET, Dose: 0, 7, 15, 30 PPM IN DIET, Tumor Site: Type of Lesion: LIVER: HEPATOCELLULAR CARCINOMA OR ADENOMA (NOS), ANGIOSARCOMA, HEMATOPOIETIC SYSTEM (LEUKEMIA), LYMPHATIC SYSTEM: LYMPH, Tumor Site: Type of Lesion: LIVER: HEPATOCELLULAR CARCINOMA OR ADENOMA (NOS), ANGIOSARCOMA, HEMATOPOIETIC SYSTEM (LEUKEMIA), LYMPHATIC SYSTEM: LYMPH", "result": "active; positive"}, {"measurement": "carcinogen call", "setting": "Species: RAT, Strain/Sex: F344/MALE, Route: ORAL, Dose: 0, 7, 15, 30 PPM IN DIET, Dose: 0, 7, 15, 30 PPM IN DIET, Tumor Site: Type of Lesion: LIVER: HEPATOCELLULAR CARCINOMA OR ADENOMA (NOS), ANGIOSARCOMA", "result": "active; positive"}]}]}
